# Columns and labels:
# M1 muscarinic receptor = target: T1, M1 muscarinic receptor (Homo sapiens, UniProt P11229); assay: Functional mobilization of intracellular calcium (FLIPR), M1-CHO cells; assay type: cell-based; details: for Emax: 100% efficacy is the maximum response obtained with the Carbachol control; for M1 Activity: CHO cells expressing M1, calcium mobilization
# T1 construct: expressed in transfected cells; host or cells: CHO (M1-CHO)
# T1 sequence (P11229 1-460): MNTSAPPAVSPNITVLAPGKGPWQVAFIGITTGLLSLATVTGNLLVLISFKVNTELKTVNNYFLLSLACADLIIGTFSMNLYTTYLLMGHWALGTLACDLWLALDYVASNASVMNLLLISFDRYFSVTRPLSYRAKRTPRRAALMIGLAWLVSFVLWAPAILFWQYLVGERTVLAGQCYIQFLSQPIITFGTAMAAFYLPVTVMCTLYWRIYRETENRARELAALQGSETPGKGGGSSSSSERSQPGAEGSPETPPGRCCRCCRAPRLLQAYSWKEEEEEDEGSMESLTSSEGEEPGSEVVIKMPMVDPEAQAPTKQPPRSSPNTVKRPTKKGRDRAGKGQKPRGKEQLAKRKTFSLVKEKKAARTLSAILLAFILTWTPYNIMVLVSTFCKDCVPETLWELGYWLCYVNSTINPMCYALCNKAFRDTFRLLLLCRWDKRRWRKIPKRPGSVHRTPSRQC
# How it was run: (§1)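 Recombinant CHO cells loaded with Fluo-3 AM or Calcium 3 dye; fluorescence recorded 60 s on FLIPR in pH 7.4 buffer with 1 mM probenecid, 0.5% DMSO. Agonist mode: compound alone; antagonist mode: 15 min preincubation (or co-application) then carbachol at EC80. Efficacy relative to maximal carbachol response.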
# M4 muscarinic receptor = target: T2, M4 muscarinic receptor (Homo sapiens, UniProt P08173); assay: Functional mobilization of intracellular calcium (FLIPR), M4-CHO cells; assay type: cell-based; details: for Emax: 100% efficacy is the maximum response obtained with the Carbachol control; for M4 Activity: CHO cells expressing M4, calcium mobilization
# T2 construct: expressed in transfected cells; host or cells: CHO (M4-CHO)
# T2 sequence (P08173 1-479): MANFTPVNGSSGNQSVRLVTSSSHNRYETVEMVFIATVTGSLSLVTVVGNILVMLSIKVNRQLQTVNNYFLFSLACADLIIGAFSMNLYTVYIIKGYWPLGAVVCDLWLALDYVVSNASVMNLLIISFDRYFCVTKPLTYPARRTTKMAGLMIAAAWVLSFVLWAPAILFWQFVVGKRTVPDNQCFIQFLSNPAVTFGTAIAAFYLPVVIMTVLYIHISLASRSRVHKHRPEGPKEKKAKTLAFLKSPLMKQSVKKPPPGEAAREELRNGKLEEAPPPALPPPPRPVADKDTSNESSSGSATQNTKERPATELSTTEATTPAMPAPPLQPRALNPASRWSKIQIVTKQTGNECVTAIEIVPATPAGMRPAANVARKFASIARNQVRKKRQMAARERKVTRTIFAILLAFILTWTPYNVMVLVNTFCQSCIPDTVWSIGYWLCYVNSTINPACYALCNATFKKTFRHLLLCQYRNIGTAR
# How it was run: as §1
Compound,Emax (M1 muscarinic receptor) [%],M1 Activity (M1 muscarinic receptor),Emax (M4 muscarinic receptor) [%],M4 Activity (M4 muscarinic receptor)
CCC#CCOC(=O)N1CCC(N2CCC3(CC2)CN(C(=O)N(C)C)c2ccccc23)CC1 [compound 93],25 to 100,+++ (activity was measured to be less than 2.0 μM),25 to 100,+++ (activity was measured to be less than 2.0 μM)
C#CCOC(=O)N1C2CCC1CC(N1CCC3(CC1)CN(C(=O)N(C)C)c1ccccc13)C2 (stereo not shown) [compound 94],25 to 100,+++ (activity was measured to be less than 2.0 μM),25 to 100,+++ (activity was measured to be less than 2.0 μM)
CC#CCOC(=O)N1C2CCC1CC(N1CCC3(CC1)CN(C(=O)N(C)C)c1ccccc13)C2 (stereo not shown) [compound 95],25 to 100,+++ (activity was measured to be less than 2.0 μM),25 to 100,+++ (activity was measured to be less than 2.0 μM)
CCOC(=O)N1CC[C@@H](CN2CCC3(CC2)CN(C(=O)N(C)C)c2ccccc23)C1 [compound 96],25 to 100,+++ (activity was measured to be less than 2.0 μM),> 100,+++ (activity was measured to be less than 2.0 μM)
C#CCOC(=O)N1CC[C@@H](CN2CCC3(CC2)CN(C(=O)N(C)C)c2ccccc23)C1 [compound 97],25 to 100,+++ (activity was measured to be less than 2.0 μM),25 to 100,+++ (activity was measured to be less than 2.0 μM)
CC#CCOC(=O)N1CC[C@@H](CN2CCC3(CC2)CN(C(=O)N(C)C)c2ccccc23)C1 [compound 98],25 to 100,+++ (activity was measured to be less than 2.0 μM),25 to 100,+++ (activity was measured to be less than 2.0 μM)
CCC#CCOC(=O)N1CC[C@@H](CN2CCC3(CC2)CN(C(=O)N(C)C)c2ccccc23)C1 [compound 99],25 to 100,+++ (activity was measured to be less than 2.0 μM),> 100,+++ (activity was measured to be less than 2.0 μM)
C#CCOC(=O)N1CC[C@H](CN2CCC3(CC2)CN(C(=O)N(C)C)c2ccccc23)C1 [compound 100],25 to 100,+++ (activity was measured to be less than 2.0 μM),25 to 100,+++ (activity was measured to be less than 2.0 μM)
CC#CCOC(=O)N1CC[C@H](CN2CCC3(CC2)CN(C(=O)N(C)C)c2ccccc23)C1 [compound 101],25 to 100,+++ (activity was measured to be less than 2.0 μM),> 100,+++ (activity was measured to be less than 2.0 μM)
CCC#CCOC(=O)N1CC[C@H](CN2CCC3(CC2)CN(C(=O)N(C)C)c2ccccc23)C1 [compound 102],25 to 100,+++ (activity was measured to be less than 2.0 μM),> 100,+++ (activity was measured to be less than 2.0 μM)
C#CCOC(=O)N1CCCC(N2CCC3(CC2)CN(C(=O)N(C)C)c2ccccc23)CC1 (stereo not shown) [compound 104],> 100,+++ (activity was measured to be less than 2.0 μM),> 100,+++ (activity was measured to be less than 2.0 μM)
CC#CCOC(=O)N1CCCC(N2CCC3(CC2)CN(C(=O)N(C)C)c2ccccc23)CC1 (stereo not shown) [compound 105],> 100,+++ (activity was measured to be less than 2.0 μM),> 100,+++ (activity was measured to be less than 2.0 μM)
CCC#CCOC(=O)N1CCCC(N2CCC3(CC2)CN(C(=O)N(C)C)c2ccccc23)CC1 (stereo not shown) [compound 106],25 to 100,+++ (activity was measured to be less than 2.0 μM),25 to 100,+++ (activity was measured to be less than 2.0 μM)
CCOC(=O)N1CCCC(N2CCC3(CC2)CN(C(=O)N(C)C)c2ccccc23)CCC1 [compound 107],> 100,+++ (activity was measured to be less than 2.0 μM),> 100,+++ (activity was measured to be less than 2.0 μM)
CN(C)C(=O)N1CC2(CCN(C[C@H]3CCN(c4cnccn4)C3)CC2)c2ccccc21 [compound 108],25 to 100,+++ (activity was measured to be less than 2.0 μM),> 100,+++ (activity was measured to be less than 2.0 μM)
CN(C)C(=O)N1CC2(CCN(C[C@@H]3CCN(c4cnccn4)C3)CC2)c2ccccc21 [compound 109],25 to 100,+++ (activity was measured to be less than 2.0 μM),> 100,+++ (activity was measured to be less than 2.0 μM)
CN(C)C(=O)N1CC2(CCN(C[C@@H]3CCN(C(=O)OC4CCOC4)C3)CC2)c2ccccc21 (stereo partly shown) [compound 110],< 25,++ (activity was measured to be from 2.0 μM to 10.0 μM),< 25,++ (activity was measured to be from 2.0 μM to 10.0 μM)
CN(C)C(=O)N1CC2(CCN(C[C@H]3CCN(C(=O)OC4CCOC4)C3)CC2)c2ccccc21 (stereo partly shown) [compound 111],< 25,++ (activity was measured to be from 2.0 μM to 10.0 μM),< 25,++ (activity was measured to be from 2.0 μM to 10.0 μM)
CN(C)C(=O)N1CC2(CCN(C3CCC(c4ncns4)CC3)CC2)c2ccccc21 (stereo not shown) [compound 112],< 25,++ (activity was measured to be from 2.0 μM to 10.0 μM),< 25,+ (activity was measured to be greater than 10.0 μM)
CN(C)C(=O)N1CC2(CCN(C3CCN(c4cncc(-c5ccccc5O)n4)CC3)CC2)c2ccccc21 [compound 113],25 to 100,+++ (activity was measured to be less than 2.0 μM),< 25,+ (activity was measured to be greater than 10.0 μM)
C=Cc1cncc(N2CCC(N3CCC4(CC3)CN(C(=O)N(C)C)c3ccccc34)CC2)n1 [compound 114],< 25,+ (activity was measured to be greater than 10.0 μM),25 to 100,+++ (activity was measured to be less than 2.0 μM)
Cc1nsc(N2CCC(C)(N3CCC4(CC3)CN(C(=O)N(C)C)c3ccccc34)CC2)n1 [compound 115],< 25,+ (activity was measured to be greater than 10.0 μM),< 25,+++ (activity was measured to be less than 2.0 μM)
Cc1cnc(N2CCC(N3CCC4(CC3)CN(C(=O)N(C)C)c3ccccc34)CC2)s1 [compound 116],< 25,+ (activity was measured to be greater than 10.0 μM),< 25,+ (activity was measured to be greater than 10.0 μM)
CN(C)C(=O)N1CC2(CCN(C3CCN(c4nc5ccccc5s4)CC3)CC2)c2ccccc21 [compound 117],< 25,+ (activity was measured to be greater than 10.0 μM),< 25,++ (activity was measured to be from 2.0 μM to 10.0 μM)
CN(C)C(=O)N1CC2(CCN(C3CCN(c4nc5ccccc5o4)CC3)CC2)c2ccccc21 [compound 118],25 to 100,++ (activity was measured to be from 2.0 μM to 10.0 μM),< 25,++ (activity was measured to be from 2.0 μM to 10.0 μM)

# Reference: patent US8263605B2, “Modulators of muscarinic receptors” (Vertex Pharmaceutical Incorporated, priority 2006, dated 2012)
